Earlier results, collected in patent publication US7749527B2, “Gel compositions for control of ecto-parasites” (Wyeth LLC, priority 2005, dated 2010).

Tested on: fleas and ticks
Conditions: companion animals

SMILES: N#Cc1ccc(CC(=NNC(=O)Nc2ccc(OC(F)(F)F)cc2)c2cccc(C(F)(F)F)c2)cc1 [Metaflumizone, (E Z)-2-[2-(4-cyanophenyl)-1-[3-(trifluoromethyl)phenyl]ethylidene]-N-[4-(trifluoromethoxy)phenyl]hydrazinecarboxamide]
- protection from fleas and ticks: 4-6 weeks
